Data: ChEMBL document CHEMBL2424609, “In silico accounting of novel pyridazine analogues as h-PTP 1B inhibitors: pharmacophore modelling, atom-based 3D QSAR and docking studies” (Med Chem Res, 2013)

Target: T1, Tyrosine-protein phosphatase non-receptor type 1 (Homo sapiens, UniProt P18031)
T1 sequence (P18031 whole entry): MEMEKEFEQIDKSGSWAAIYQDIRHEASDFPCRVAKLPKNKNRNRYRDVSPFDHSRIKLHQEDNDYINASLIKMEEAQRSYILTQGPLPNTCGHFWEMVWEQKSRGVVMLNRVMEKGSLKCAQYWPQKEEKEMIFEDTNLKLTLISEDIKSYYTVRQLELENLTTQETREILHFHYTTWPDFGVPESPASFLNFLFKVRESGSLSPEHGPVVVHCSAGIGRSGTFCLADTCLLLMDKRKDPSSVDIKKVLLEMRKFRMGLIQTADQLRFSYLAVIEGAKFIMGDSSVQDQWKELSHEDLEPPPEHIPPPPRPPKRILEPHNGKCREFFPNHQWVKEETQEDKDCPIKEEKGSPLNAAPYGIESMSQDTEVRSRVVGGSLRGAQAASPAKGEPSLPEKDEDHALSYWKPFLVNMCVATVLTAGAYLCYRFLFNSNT
Test: Non-competitive reversible inhibition of human PTP1B

SMILES | IC50 (read-out: IC50) [µM] | IC50 (read-out: pIC50 (converted)) [µM]
CC1(C)C=C2C(=NN(c3ccccc3)C(N)=C2C#N)CO1 | 5.7 | 5.7
CC1(C)C=C2C(=NN(c3ccccc3C(F)(F)F)C(N)=C2C#N)CO1 | 3.9 | 3.9
CC1(C)C=C2C(=NN(c3cccc(C(F)(F)F)c3)C(N)=C2C#N)CO1 | 2.8 | 2.8
CCOc1ccc(N2N=C3COC(C)(C)C=C3C(C#N)=C2N)cc1 | 3.2 | 3.2
CCOc1ccccc1N1N=C2COC(C)(C)C=C2C(C#N)=C1N | 3.4 | 3.4
N#CC1=C(N)N(c2ccccc2)N=C2CCCC=C21 | 10.4 | 10.4
N#CC1=C(N)N(c2ccccc2F)N=C2CSCC=C21 | 4.4 | 4.4
CC1(C)C=C2C(=NN(c3ccccc3N3CCOCC3)C(N)=C2C#N)CO1 | 2.9 | 2.9
CC(C)c1cccc(N2N=C3COC(C)(C)C=C3C(C#N)=C2N)c1 | 8.2 | 8.2
CCCCc1ccc(N2N=C3COC(C)(C)C=C3C(C#N)=C2N)cc1 | 7 | 7
CC1(C)C=C2C(=NN(c3ccc(F)cc3)C(N)=C2C#N)CO1 | 4.9 | 4.9
CC1(C)C=C2C(=NN(c3ccccc3F)C(N)=C2C#N)CO1 | 2.4 | 2.4
CC1(C)C=C2C(=NN(c3cccc(F)c3)C(N)=C2C#N)CO1 | 4.5 | 4.5
CC1(C)C=C2C(=NN(c3ccc(CCO)cc3)C(N)=C2C#N)CO1 | 2.9 | 2.9
COc1ccccc1N1N=C2COC(C)(C)C=C2C(C#N)=C1N | 6.2 | 6.19
COc1cccc(N2N=C3COC(C)(C)C=C3C(C#N)=C2N)c1 | 3.6 | 3.6
CC1(C)C=C2C(=NN(c3ccc(Oc4ccccc4)cc3)C(N)=C2C#N)CO1 | 22.7 | 22.7
CC1(C)C=C2C(=NN(c3ccccc3Oc3ccccc3)C(N)=C2C#N)CO1 | 15.8 | 15.8
CC1(C)C=C2C(=NN(c3cccc(Oc4ccccc4)c3)C(N)=C2C#N)CO1 | 3.9 | 3.9
CC(=O)Nc1ccc(N2N=C3COC(C)(C)C=C3C(C#N)=C2N)cc1 | 6.1 | 6.1
CC1(C)C=C2C(=NN(c3ccccc3[N+](=O)[O-])C(N)=C2C#N)CO1 | 17.5 | 17.5
CCc1ccc(N2N=C3COC(C)(C)C=C3C(C#N)=C2N)cc1 | 2.8 | 2.8
CCc1cccc(N2N=C3COC(C)(C)C=C3C(C#N)=C2N)c1 | 8.2 | 8.2
CC1(C)C=C2C(=NN(c3ccccc3CO)C(N)=C2C#N)CO1 | 11.1 | 11.1
CC(C)c1ccc(N2N=C3CSCC=C3C(C#N)=C2N)cc1 | 5.6 | 5.6

Next, values leading:

IC50 (read-out: IC50) [µM] | IC50 (read-out: pIC50 (converted)) [µM] | SMILES
1.1 | 1.1 | N#CC1=C(N)N(c2ccccc2)N=C2CSCC=C21
2.4 | 2.4 | CC1(C)C=C2C(=NN(c3cccc(CO)c3)C(N)=C2C#N)CO1
0.35 | 0.35 | N#CC1=C(N)N(c2ccccc2)N=C2COCC=C21
2.1 | 2.1 | COC(=O)c1cccc(N2N=C3COC(C)(C)C=C3C(C#N)=C2N)c1
2 | 2 | CC(C)c1ccccc1N1N=C2CSCC=C2C(C#N)=C1N
2 | 2 | N#CC1=C(N)N(c2ccc(F)cc2)N=C2CSCC=C21
1.3 | 1.3 | COc1ccc(N2N=C3CSCC=C3C(C#N)=C2N)cc1
1.5 | 1.5 | CCCCc1ccccc1N1N=C2COC(C)(C)C=C2C(C#N)=C1N
2.2 | 2.2 | COc1ccc(N2N=C3COC(C)(C)C=C3C(C#N)=C2N)cc1
2.3 | 2.3 | CC(=O)Nc1cccc(N2N=C3COC(C)(C)C=C3C(C#N)=C2N)c1
1.6 | 1.6 | CCc1ccccc1N1N=C2COC(C)(C)C=C2C(C#N)=C1N
1.7 | 1.7 | CC1(C)C=C2C(=NN(c3ccc(CO)cc3)C(N)=C2C#N)CO1
